# Measured values from patent US20220396565A1 (Hoffmann-La Roche Inc., priority 2020, published 2022).
# Counter-ions that a name gives are not always drawn.
# System: Acinetobacter baumannii ATCC17961
# Experiment: Antimicrobial susceptibility testing: 90% growth inhibitory concentration (IC90) determination, Iso-Sensitest broth
# Assay type: cell-based
# Conditions: Acinetobacter baumannii, ATCC17961, 90% growth inhibitory concentration, Acinetobacter baumannii ATCC17961, Iso-Sensitest broth; read-out: ATCC 17961 IC90
# Procedure, shortened: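 Twofold serial dilutions (e.g. 10 to 0.02 μM final) were tested in Iso-Sensitest broth against ~5×10^(5) CFU/ml at 35±2 °C. OD600 was read every 20 min over 16 h. IC90 was derived from growth inhibition during the logarithmic phase.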
row,IC90 [nM],Structure (SMILES)
1,30,"Cn1c(-c2ccc(OC(F)F)c(F)c2Cl)cnc1C(=O)Nc1ccc(C(=O)N2CCN(C(=O)C3(O)CCNCC3)CC2)c(Cl)c1 [Example 169, 5-[2-chloro-4-(difluoromethoxy)-3-fluoro-phenyl]-N-[3-chloro-4-[4-(4-hydroxypiperidine-4-carbonyl)piperazine-1-carbonyl]phenyl]-1-methyl-imidazole-2-carboxamide formate]"
2,60,"CCOc1ccc(-c2cnc(C(=O)Nc3ccc(C(=O)N4CCN(C(=O)C5(O)CCNCC5)CC4)c(Cl)c3)n2C)c(F)c1F [Example 170, N-[3-chloro-4-[4-(4-hydroxypiperidine-4-carbonyl)piperazine-1-carbonyl]phenyl]-5-(4-ethoxy-2,3-difluoro-phenyl)-1-methyl-imidazole-2-carboxamide formate]"
3,50,"Cn1c(-c2ccc(OC(F)F)c(F)c2Cl)cnc1C(=O)Nc1ccc(C(=O)N2CCN(C(=O)CC3(O)CCNCC3)CC2)c(Cl)c1 [Example 172, 5-[2-chloro-4-(difluoromethoxy)-3-fluoro-phenyl]-N-[3-chloro-4-[4-[2-(4-hydroxy-4-piperidyl)acetyl]piperazine-1-carbonyl]phenyl]-1-methyl-imidazole-2-carboxamide formate]"
4,50,"Cn1c(-c2ccc(OCF)c(F)c2Cl)cnc1C(=O)Nc1ccc(C(=O)N2CCN(C(=O)CC3(O)CCNCC3)CC2)c(Cl)c1 [Example 173, 5-[2-chloro-3-fluoro-4-(fluoromethoxy)phenyl]-N-[3-chloro-4-[4-[2-(4-hydroxy-4-piperidyl)acetyl]piperazine-1-carbonyl]phenyl]-1-methyl-imidazole-2-carboxamide formate]"
5,70,"Cn1c(-c2ccc(OC(F)F)c(F)c2F)cnc1C(=O)Nc1ccc(C(=O)N2CCN(C(=O)C3CCN(C(=O)C4CNC4)CC3)CC2)c(Cl)c1 [Example 174, N-[4-[4-[1-(azetidine-3-carbonyl)piperidine-4-carbonyl]piperazine-1-carbonyl]-3-chloro-phenyl]-5-[4-(difluoromethoxy)-2,3-difluoro-phenyl]-1-methyl-imidazole-2-carboxamide formate]"

# Further lines, the compound ahead of its results:
row,Structure (SMILES),IC90 [nM]
1,"COc1ccc(-c2cnc(C(=O)Nc3ccc(C(=O)N4CCN(C(=O)C5CNC5)CC4)c(Cl)c3)n2C)c(F)c1F [Example 165, N-[4-[4-(azetidine-3-carbonyl)piperazine-1-carbonyl]-3-chloro-phenyl]-5-(2,3-difluoro-4-methoxy-phenyl)-1-methyl-imidazole-2-carboxamide formate]",50
2,"COc1ccc(-c2cnc(C(=O)Nc3ccc(C(=O)N4CCN(C(=O)C5(O)CCNCC5)CC4)c(Cl)c3)n2C)c(F)c1F [Example 166, N-[3-chloro-4-[4-(4-hydroxypiperidine-4-carbonyl)piperazine-1-carbonyl]phenyl]-5-(2,3-difluoro-4-methoxy-phenyl)-1-methyl-imidazole-2-carboxamide formate]",50
3,"COc1ccc(-c2cnc(C(=O)Nc3ccc(C(=O)N4CCN(C(=O)C[C@@H]5CCNC5)CC4)c(Cl)c3)n2C)c(Cl)c1F [Example 167, 5-(2-chloro-3-fluoro-4-methoxy-phenyl)-N-[3-chloro-4-[4-[2-[(3S)-pyrrolidin-3-yl]acetyl]piperazine-1-carbonyl]phenyl]-1-methyl-imidazole-2-carboxamide formate]",50
4,"COc1c(F)cc(-c2cnc(C(=O)Nc3ccc(C(=O)N4CCN(C(=O)C5CCNCC5)CC4)c(Cl)c3)n2C)c(F)c1F [Example 168, N-[3-chloro-4-[4-(piperidine-4-carbonyl)piperazine-1-carbonyl]phenyl]-1-methyl-5-(2,3,5-trifluoro-4-methoxy-phenyl)imidazole-2-carboxamide formate]",150

# Same assay, conditions: Acinetobacter baumannii, ATCC17961, read-out: ATCC 17961 IC90
row,Structure (SMILES),IC90 [nM]
1,"Cn1c(-c2ccc(OCF)c(F)c2F)cnc1C(=O)Nc1ccc(C(=O)N2CCN(C(=O)C3CNCC(O)C3)CC2)c(Cl)c1 (stereo not shown) [Example 171, formate]",50
